Our source for the IC50 values is US9630961B2, “Arginine methyltransferase inhibitors and uses thereof” (Epizyme, Inc., priority 2013, dated 2017).

The structures appear in SMILES notation. A value given as a limit tells only on which side of the number the result lay.

This test addresses T1, CARM1 (PRMT4) (Homo sapiens, UniProt Q86X55).
T1 construct: Flag-CARM1-His; made in house; host or cells: HEK 293F cells (BacMam virus)
T1 sequence (Q86X55 1-585 isoform Q86X55-1): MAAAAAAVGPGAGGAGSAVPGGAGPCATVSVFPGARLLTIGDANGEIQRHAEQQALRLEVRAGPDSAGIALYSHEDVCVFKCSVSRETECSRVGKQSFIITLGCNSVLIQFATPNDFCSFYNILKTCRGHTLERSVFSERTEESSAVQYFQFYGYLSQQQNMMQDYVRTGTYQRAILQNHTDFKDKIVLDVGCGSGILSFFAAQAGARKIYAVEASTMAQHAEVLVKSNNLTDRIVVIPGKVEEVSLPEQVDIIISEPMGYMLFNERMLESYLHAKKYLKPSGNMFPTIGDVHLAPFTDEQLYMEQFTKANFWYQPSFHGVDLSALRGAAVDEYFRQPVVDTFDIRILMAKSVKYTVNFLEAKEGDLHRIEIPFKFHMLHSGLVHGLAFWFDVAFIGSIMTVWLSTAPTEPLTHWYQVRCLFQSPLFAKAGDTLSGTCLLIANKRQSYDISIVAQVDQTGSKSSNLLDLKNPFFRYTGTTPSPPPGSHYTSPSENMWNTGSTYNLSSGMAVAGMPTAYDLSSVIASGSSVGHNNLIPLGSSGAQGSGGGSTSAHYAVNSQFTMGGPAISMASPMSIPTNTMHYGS
Put plainly: CARM1 Biochemical Assay (3H-SAM Flashplate, peptide substrate). As to conditions: 30 min preincubation, room temperature. The text has this:
S-adenosylmethionine (SAM), S-adenosylhomocysteine (SAH), bicine, Tween20, dimethylsulfoxide (DMSO), bovine skin gelatin (BSG), sodium butyrate and Tris(2-carboxyethyl)phosphine hydrochloride solution (TCEP) were purchased from Sigma-Aldrich at the highest level of purity possible. ^3H-SAM was purchase from American Radiolabeled Chemicals with a specific activity of 80 Ci/mmol. 384-well streptavidin Flashplates were purchased from PerkinElmer.
Peptide representative of human histone H3 residues 16-30 was synthesized with an N-terminal linker-affinity tag motif and a C-terminal amide cap by 21st Century Biochemicals. The peptide was purified by high-performance liquid chromatography (HPLC) to greater than 95% purity and confirmed by liquid chromatography mass spectrometry (LC-MS). The sequence was Biot-Ahx-[…]-amide and contained a monomethylated arginine at position 26 (SEQ ID NO.:14).
Human CARM1 (PRMT4) (NM_199141.1) transcript clone was amplified from an HEK 293 cDNA library, incorporating a flanking 5′ sequence encoding a FLAG tag ([…]) (SEQ ID NO.:6) fused directly to Ala 2 of CARM1 and 3′ sequence encoding a hexa His sequence ([…]) (SEQ ID NO.:15) fused directly to Ser 608. The gene sequence encoding isoform1 containing a deletion of amino acids 539-561 was amplified subsequently and subcloned into pFastBacMam (Viva Biotech).
Recombinant baculovirus were generated according to Bac-to-Bac kit instructions (Life Technologies). […] Infections were carried out at 37° C. for 48 hours, harvested by centrifugation, and stored at −80° C. for purification.
Column was washed with 500 mM NaCl in buffer A and Flag-CARM1-His was eluted with 200 ug/ml FLAG peptide in buffer A. Pooled fractions were dialyzed in 20 mM Tris, 150 mM NaCl, 5% glycerol and 1 mM DTT, pH 7.8. The purity of recovered protein was 94.
General Procedure for CARM1 Enzyme Assays on Peptide Substrates.
The assays were all performed in a buffer consisting of 20 mM Bicine (pH=7.6), 1 mM TCEP, 0.005% BSG, and 0.002% Tween 20, prepared on the day of use. Compounds in 100% DMSO (1 ul) were spotted into a polypropylene 384-well V-bottom plates (Greiner) using a Platemate Plus outfitted with a 384-channel head (Thermo Scientific). DMSO (1 ul) was added to Columns 11, 12, 23, 24, rows A-H for the maximum signal control and 1 ul of SAH, a known product and inhibitor of CARM1, was added to columns 11, 12, 23, 24, rows I-P for the minimum signal control. A cocktail (40 ul) containing the CARM1 enzyme was added by Multidrop Combi (Thermo-Fisher). The compounds were allowed to incubate with CARM1 for 30 min at room temperature, then a cocktail (10 ul) containing ^3H-SAM and peptide was added to initiate the reaction (final volume=51 ul). The final concentrations of the components were as follows: CARM1 was 0.25 nM, ^3H-SAM was 30 nM, peptide was 250 nM, SAH in the minimum signal control wells was 1 mM, and the DMSO concentration was 2%. The assays were stopped by the addition of non-radiolabeled SAM (10 ul) to a final concentration of 300 uM, which dilutes the ^3H-SAM to a level where its incorporation into the peptide substrate is no longer detectable. 50 ul of the reaction in the 384-well polypropylene plate was then transferred to a 384-well Flashplate and the biotinylated peptides were allowed to bind to the streptavidin surface for at least 1 hour before being washed once with 0.1% Tween20 in a Biotek ELx405 plate washer. The plates were then read in a PerkinElmer TopCount plate reader to measure the quantity of ^3H-labeled peptide bound to the Flashplate surface, measured as disintegrations per minute (dpm) or alternatively, referred to as counts per minute (cpm).
Where dpm=disintegrations per minute, cmpd=signal in assay well, and min and max are the respective minimum and maximum signal controls.
Where top and bottom are the normally allowed to float, but may be fixed at 100 or 0 respectively in a 3-parameter fit. […]
As for `CN(CCN)Cc1c[nH]nc1-c1ccsc1` [Compound 3], the IC50 (in general, the concentration needed to halve the response being measured) lay in the range of 3.01 to 10 µM.

`CN(CCN)Cc1c[nH]nc1-c1cncnc1` [Compound 4] showed a concentration for half-maximal inhibition (IC50) of at least 10 µM.

In turn, `CN(CCN)Cc1c[nH]nc1-c1cccs1` [Compound 5] displayed an IC50 of at least 10 µM.

Regarding `CN(CCN)Cc1c[nH]nc1-c1ccco1` [Compound 6], the IC50 lay in the range of 3.01 to 10 µM.

With `CN(CCN)Cc1c[nH]nc1-c1ccoc1` [Compound 7], the IC50 lay in the range of 3.01 to 10 µM.

`CN(CCN)Cc1c[nH]nc1-c1cnn(C)c1` [Compound 8] gave an IC50 of 3.01 to 10 µM.

For `CN(CCN)Cc1c[nH]nc1-c1ccc2scnc2c1` [Compound 9], the IC50 fell in the range of 1.01 to 3 µM.

With `Cc1noc(C)c1-c1n[nH]cc1CN(C)CCN` [Compound 10], the IC50 is at least 10 µM.

Compound `COc1ncc(-c2n[nH]cc2CN(C)CCN)cn1` [Compound 11] showed a 50% inhibitory concentration (IC50) of at least 10 µM.

With `CN(CCN)Cc1c[nH]nc1-c1cn[nH]c1` [Compound 12], the IC50 was at least 10 µM.

In turn, `CN(CCN)Cc1c[nH]nc1-c1cnc2[nH]ccc2c1` [Compound 13] came in with an IC50 of 0.101 to 1 µM.

`CN(CCN)Cc1c[nH]nc1-c1cc[nH]n1` [Compound 14] gave an IC50 of at least 10 µM.
